Source: patent US11617729B2 (priority 2019, dated 2023)

What was measured:
[1] = test system: H22 mouse liver cancer cells; assay: Inhibition of the growth of mouse liver cancer tumors; assay type: in vivo, Kunming mice; conditions: for Inhibition rate (ninth day): vs normal saline group, hydrochloride; for tumor volume, Ninth day / tumor volume, Sixth day / tumor volume, Third day: H22 tumors in Kunming mice
Method: Preparation of tumor cell suspension: H22 mouse liver cancer cells are inoculated into a 1640 medium containing 10% FBS (fetal bovine serum), and cultured at 37° C. for 12 h in an incubator containing 5% CO2. When the cells grow to the logarithmic phase, the above medium is prepared into a cell suspension, and the concentration of H22 mouse liver cancer cells is controlled to 1×10^6 cells/mL to obtain the tumor cell suspension for later use.
Building of animal tumor model: 30 SPF grade Kunming mice, male and (20±2) g, are taken. […] The right armpit skin of mice in each group is disinfected with alcohol, and 0.2 mL of the above tumor cell suspension is drawn with a 1 mL syringe, and inoculated into the disinfected part of the mice by slow hypodermic injection. All mice are given sufficient water and feed, the litter is kept dry and the tumor growth of the mice is observed. Generally, 7 days after modeling, obvious tumor nodules can be felt under the armpits of the mice, which means that the modeling was successful.

[2] = test system: liver cancer cells Huh7; assay: Inhibition of liver cancer cell proliferation (CellTiter 96 AQueous One Solution); assay type: cell-based; conditions: 72 hours, 490 nm absorbance
Method: (§1) Liver cells LO2 and liver cancer cells Huh7 are inoculated into a 1640 medium containing 10% FBS (fetal bovine serum) respectively, and cultured at 37° C. for 12 hours in an incubator containing 5% CO2. […] The CellTiter 96® AQueous One Solution kit is used to determine the cells. 20 μL of analytical reagents are added and readings are taken at 490 nm absorbance.

[3] = test system: liver cancer cells Huh7; assay: Inhibition of fluorescently labeled DNA uptake by liver cancer cells; assay type: cell-based; conditions: then labeled DNA for 8 hours
Method: 1.8 KB of AFP (alpha feto protein) DNA is obtained through PCR (polymerase chain reaction), extracted with phenol-chloroform and adjusted to a concentration of 1 μg/mL. 5 μg of DNA is taken, and Rhodamine (fluorescent marker) is added. The mixture is allowed to stand at 37° C. for 1 hour, and purified in a G-50 Sephadex (purification column).
1640 medium is taken, and FBS (fetal bovine serum) is added, wherein the mass of FBS (fetal bovine serum) is 10% of that of 1640 medium. Put the mixture aside.
Eight groups of liver cancer cells Huh7 are inoculated into a 1640 medium respectively containing 10% FBS (fetal bovine serum) and cultured at 37° C. for 12 hours in an incubator containing 5% CO2.
Cells obtained through culture are rinsed 3 times with PBS and fixed with 4% formalin. The cells fixed as described above are photographed with a fluorescence microscope. […] The concentration of T3 is: 0 ng/mL, 1 ng/mL, 50 ng/mL and 100 ng/mL respectively.

[4] = test system: liver cells LO2; assay: Proliferation of liver cells (CellTiter 96 AQueous One Solution); assay type: cell-based; conditions: 72 hours, 490 nm absorbance
Method: as §1

[5] = test system: LLC lung cancer cell strains; assay: Inhibition of the growth of mouse lung cancer tumors; assay type: in vivo, CK57BL mice; conditions: for Inhibition rate on the seventh day: 480 mg/kg intraperitoneally once a day for 7 days, vs normal saline group, hydrochloride
Method: Preparation of tumor cell suspension: LLC lung cancer cell strains are inoculated into a DMEM medium containing 10% FBS (fetal bovine serum), and cultured at 37° C. for 12 h in an incubator containing 5% CO2. When the cells grow to the logarithmic phase, the above medium is prepared into a cell suspension, and the concentration is 1×10^6 cells/mL to obtain the lung cancer cell suspension for later use.
Building of animal tumor model: 20 SPF grade CK57BL mice, male and (20±2) g, are taken. The above mice are kept in a laboratory without particular pathogens. The right armpit skin of the mice is disinfected with alcohol, and 0.2 mL of the above tumor cell suspension is drawn with a 1 mL syringe, and inoculated into the disinfected part of the mice by slow hypodermic injection. All mice are given sufficient water and feed, the litter is kept dry and the tumor growth of the mice is observed. Generally, about 10 days after modeling, obvious tumor nodules can be felt under the armpits of the mice, which means that the modeling was successful.

[6] = high-dose, 480 mg/kg intraperitoneally twice a day
[7] = low-dose, 240 mg/kg intraperitoneally twice a day
[8] = 480 mg/kg intraperitoneally once a day, LLC tumors in CK57BL mice

Compound | Inhibition rate (ninth day) ([1]; high-dose, 480 mg/kg intraperitoneally twice a day for 9 days, 480 mg/kg) | tumor volume, Ninth day [1, 6] | tumor volume, Sixth day [1, 6] | tumor volume, Third day [1, 6] | Inhibition rate (ninth day) ([1]; low-dose, 240 mg/kg intraperitoneally twice a day for 9 days, 240 mg/kg) | tumor volume, Ninth day [1, 7] | tumor volume, Sixth day [1, 7] | tumor volume, Third day [1, 7] | growth of cancer cells Huh7 ([2]; 6 mmol/L) | growth of cancer cells Huh7 ([2]; 20 mmol/L) | uptake of fluorescently labeled DNA by liver cancer cells ([3]; 0, 1, 25, 50 mmol/L guanidine hydrochloride for 24 hours, fluorescence microscope) | growth of liver cells LO2 ([4]; 6 mmol/L) | growth of liver cells LO2 ([4]; 20 mmol/L) | Inhibition rate on the seventh day [5] | Inhibition rate on the seventh day ([5]; listed as Guanidine hydrochloride) | tumor volume, First day [5, 8] | tumor volume, Seventh day [5, 8] | tumor volume, Third day [5, 8] | uptake of fluorescently labeled DNA by liver cancer cells ([3]; control groups with 0, 1, 50, 100 ng/mL T3 for 24 hours)
guanidine hydrochloride | 42% | 2.37 cm^3 | 1.47 cm^3 | 0.54 cm^3 | 24% | 3.11 cm^3 | 2.16 cm^3 | 0.55 cm^3 | begins to significantly inhibit | significantly inhibited | significantly inhibit the uptake of DNA | does not affect the growth | significantly inhibited | 56.8% | 56.8% | 0.43 cm^3 | 1.8 cm^3 | 0.92 cm^3 | –
N[C@@H](Cc1cc(I)c(Oc2ccc(O)c(I)c2)c(I)c1)C(=O)O [triiodothyronine] | – | – | – | – | – | – | – | – | – | – | – | – | – | – | – | – | – | – | do not affect the uptake
